Measurements published in PubChem BioAssay AID248 (DTP/NCI, 2004).
Several values for one entry are separate records, joined by “and”; a condition that tells them apart may be missing. Equal values may be shown once. Toxic doses and inconclusive results are not listed. No stated cut-off is given here; in the data, active means T/C of 150% or more; inactive means T/C below 125%.

Tested on: L1210 leukemia ip in BDF1 mice, survival T/C
Assay: NCI In Vivo Anticancer Drug Screen. Data for tumor model L1210 Leukemia (intraperitoneal) in B6D2F1 (BDF1) mice
Conditions: endpoint: mean survival time, higher = longer survival
Outline: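 Read-out is survival time, reported as the treated-group measurement over the vehicle-control measurement.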

[1] = dose: 100.0 mg/kg/injection, schedule: Q04DX003 (ip), vehicle: saline with Tween-80
[2] = dose: 200.0 mg/kg/injection, schedule: Q04DX003 (ip), vehicle: saline with Tween-80
[3] = dose: 400.0 mg/kg/injection, schedule: Q04DX003 (ip), vehicle: saline with Tween-80
[4] = dose: 75.0 mg/kg/injection, schedule: Q01DX001 (ip), vehicle: saline
[5] = dose: 150.0 mg/kg/injection, schedule: Q01DX001 (ip), vehicle: saline
[6] = dose: 300.0 mg/kg/injection, schedule: Q01DX001 (ip), vehicle: saline

Measured: T/C

COc1ccc(C(=O)NC(=S)Nc2ccc(O)cc2)cc1
inactive: dose: 100.0 mg/kg/injection, schedule: Q01DX009 (ip), vehicle: saline with Tween-80 97 % of control and 104 % of control | dose: 100.0 mg/kg/injection, schedule: Q04DX002 (ip), vehicle: saline with Tween-80 98 % of control | [1] 99 % of control | dose: 200.0 mg/kg/injection, schedule: Q01DX009 (ip), vehicle: saline with Tween-80 108 % of control and 109 % of control | dose: 200.0 mg/kg/injection, schedule: Q04DX002 (ip), vehicle: saline with Tween-80 104 % of control | [2] 94 % of control | dose: 400.0 mg/kg/injection, schedule: Q01DX009 (ip), vehicle: saline with Tween-80 98 % of control and 101 % of control | dose: 400.0 mg/kg/injection, schedule: Q04DX002 (ip), vehicle: saline with Tween-80 95 % of control | [3] 96 % of control

Cc1ccccc1S(=O)(=O)NC1c2ccccc2Oc2ccccc21
inactive: [4] 96 % of control | dose: 75.0 mg/kg/injection, schedule: Q01DX009 (ip), vehicle: saline 86 % of control | [5] 86 % of control | [6] 86 % of control

COC(=O)c1ccc(OCc2ccccc2)cc1
inactive: dose: 100.0 mg/kg/injection, schedule: Q04DX003 (ip), vehicle: Klucel (hydroxypropylcellulose) (HPC) 103 % of control | dose: 200.0 mg/kg/injection, schedule: Q04DX003 (ip), vehicle: Klucel (hydroxypropylcellulose) (HPC) 100 % of control | dose: 400.0 mg/kg/injection, schedule: Q04DX003 (ip), vehicle: Klucel (hydroxypropylcellulose) (HPC) 92 % of control

COC(=O)C(c1ccccc1)C(Br)C(=O)c1ccc(Cl)cc1 (stereo unspecified)
inactive: dose: 100.0 mg/kg/injection, schedule: Q01DX009 (ip), vehicle: Klucel (hydroxypropylcellulose) (HPC) 92 % of control | dose: 200.0 mg/kg/injection, schedule: Q01DX009 (ip), vehicle: Klucel (hydroxypropylcellulose) (HPC) 97 % of control | dose: 400.0 mg/kg/injection, schedule: Q01DX009 (ip), vehicle: Klucel (hydroxypropylcellulose) (HPC) 94 % of control

CC12CCC(C(N)C1=O)C2(C)C (stereo unspecified)
inactive: dose: 100.0 mg/kg/injection, schedule: Q01DX009 (ip), vehicle: saline 103 % of control | dose: 100.0 mg/kg/injection, schedule: Q04DX003 (ip), vehicle: saline 98 % of control | dose: 200.0 mg/kg/injection, schedule: Q01DX009 (ip), vehicle: saline 105 % of control | dose: 200.0 mg/kg/injection, schedule: Q04DX003 (ip), vehicle: saline 98 % of control | dose: 400.0 mg/kg/injection, schedule: Q01DX009 (ip), vehicle: saline 94 % of control | dose: 400.0 mg/kg/injection, schedule: Q04DX003 (ip), vehicle: saline 97 % of control

CC1C(C)(C)C1(F)Cl (stereo unspecified)
inactive: dose: 100.0 mg/kg/injection, schedule: Q01DX001 (ip), vehicle: carboxymethylcellulose (CMC) 95 % of control | dose: 200.0 mg/kg/injection, schedule: Q01DX001 (ip), vehicle: carboxymethylcellulose (CMC) 103 % of control | dose: 400.0 mg/kg/injection, schedule: Q01DX001 (ip), vehicle: carboxymethylcellulose (CMC) 108 % of control

COC(=O)/C=C\n1cnc2ccccc21
inactive: [4] 109 % of control | [5] 112 % of control | [6] 107 % of control

CC([NH-])C[NH-].[Cl][Pt+2][Cl] (stereo unspecified)
active: dose: 3.75 mg/kg/injection, schedule: Q01DX009 (ip), vehicle: saline 173 % of control
inactive: dose: 0.31 mg/kg/injection, schedule: Q01DX009 (ip), vehicle: saline 108 % of control | dose: 0.62 mg/kg/injection, schedule: Q01DX009 (ip), vehicle: saline 116 % of control and 119 % of control | dose: 1.1 mg/kg/injection, schedule: Q01DX009 (ip), vehicle: saline 111 % of control | dose: 1.25 mg/kg/injection, schedule: Q01DX009 (ip), vehicle: saline 122 % of control | dose: 1.65 mg/kg/injection, schedule: Q01DX009 (ip), vehicle: saline 116 % of control | dose: 5.0 mg/kg/injection, schedule: Q01DX009 (ip), vehicle: saline 93 % of control and 108 % of control | dose: 6.25 mg/kg/injection, schedule: Q04DX002 (ip), vehicle: Klucel (hydroxypropylcellulose) (HPC) 112 % of control | dose: 12.5 mg/kg/injection, schedule: Q04DX002 (ip), vehicle: Klucel (hydroxypropylcellulose) (HPC) 112 % of control | dose: 25.0 mg/kg/injection, schedule: Q04DX002 (ip), vehicle: Klucel (hydroxypropylcellulose) (HPC) 104 % of control

Cc1nn[nH]n1
inactive: dose: 100.0 mg/kg/injection, schedule: Q01DX001 (ip), vehicle: saline 119 % of control | dose: 200.0 mg/kg/injection, schedule: Q01DX001 (ip), vehicle: saline 105 % of control | dose: 400.0 mg/kg/injection, schedule: Q01DX001 (ip), vehicle: saline 105 % of control

CCOCC(O)(c1ccc(Cl)cc1)c1ccc(Cl)cc1
inactive: [1] 106 % of control | [2] 95 % of control | [3] 102 % of control

CC1CN1P(=O)(Oc1ccccc1)N1CC1C (stereo unspecified)
inactive: dose: 44.0 mg/kg/injection, schedule: Q01DX Z (ip), vehicle: saline 107 % of control | dose: 67.0 mg/kg/injection, schedule: Q01DX Z (ip), vehicle: saline 107 % of control | dose: 100.0 mg/kg/injection, schedule: Q01DX Z (ip), vehicle: saline 102 % of control | dose: 150.0 mg/kg/injection, schedule: Q01DX Z (ip), vehicle: saline 122 % of control
